Values quoted from earlier work in patent US6696082B2, “Enhanced liposomal thioretinaco ozonide compositions and liposomal carrier” (priority 2002, dated 2004).

What was measured:
[1] = test system: human pancreatic adenocarcinomas; details: intra-tumor administration, athymic mice; cited from earlier work
[2] = rats treated with parenteral homocysteine thiolactone; cited from earlier work
[3] = test system: cultured malignant and normal cells; details: except at high concentrations; cited from earlier work
malignant tumors = details: in vivo; cited from earlier work

Molecule	growth of human pancreatic adenocarcinomas [1]	antiatherogenic activity [2]	growth of cultured cells [3]	growth of malignant tumors in animals (malignant tumors)
N-homocysteine thiolactonyl retinamido cobalamin [(NHTR)2Cbl]	decreased the growth	have antiatherogenic activity	decrease growth without degeneration or detachment of the cells	
NC(=O)/C=C\C(=O)NC1CCSC1=O (centres unmarked) [N-maleamide homocysteine thiolactone amide]				suppress the growth of malignant tumors in animals
N-maleyl homocysteine thiolactone amide				suppress the growth of malignant tumors in animals
rhodium trichloride oxalyl homocysteine thiolactone amide				suppress the growth of malignant tumors in animals
CC1=C(/C=C/C(C)=C/C=C/C(C)=C/C(=O)NC2CCSC2=O)C(C)(C)CCC1 (centres unmarked) [thioretinamide, N-homocysteine thiolactonyl retinamide]		have antiatherogenic activity	decrease growth without degeneration or detachment of the cells	
